{"source": "patent US20230285570A1", "about": "“THERAPEUTICALLY USEFUL CURE-PRO MOLECULES FOR E3 LIGASE MEDIATED DEGRADATION OF PROTEINS, AND METHODS OF MAKING AND USING THEM” (CORNELL UNIVERSITY, priority 2020, published 2023)", "assay_type_in_all_cases": "cell-based", "key": {"caspase 3/7 [1]": {"system": "caspase 3/7", "assay": "Caspase-Glo 3/7 assay, Namalwa cells", "details": "24 h", "experimental": "(§1) Caspase-glo® assay (Promega) was conducted following the manufacturer's recommendations. Cells were seeded at a density of 5000 cells/well in a white 96 well plates (Corning, #3917) in a total volume of 100 μl with respective monomers, combinations of BRD ligands together with E3 ligase ligands or vehicle control treatment. After a 24 h incubation, 100 μl of the […] substrate was added per well and luminescence was read on a Spectramax M5 (Molecular Devices).\nNamalwa cells (5×10^4) were treated for 24 hours with the compounds solubilized in DMSO. FIG. 57 is a bar graph depiction of fold increase of apoptosis assessed via caspase 3/7 activity using the Caspase-Glo assay (Promega) described above.\n(§2) Molm-13 (FIG. 76A) or Namalwa (FIG. 76B) cells (5×10^4) were treated for 24 hours with the compounds solubilized in DMSO in white 96 well plates (10 nM-10 μM solubilized in DMSO). FIG. 76 is a bar graph depiction of fold increase of apoptosis assessed via caspase 3/7 activity using the Caspase-Glo assay (Promega) described above."}, "caspase 3/7 [2]": {"system": "caspase 3/7", "assay": "Caspase-Glo 3/7 assay, Molm-13 cells", "experimental": "as §1, §2"}, "Molm-13 cells": {"system": "Molm-13 cells", "assay": "CellTiter-Glo cell viability, Molm-13 cells", "experimental": "CellTiter-Glo® 2.0 Cell Viability Assay (Promega) was carried out following the manufacturer's recommendations. Cells were seeded at a density of 1000 cells/well in a white 96 well plates (Corning, #3917) in a total volume of 100 μl with respective monomers, combinations of BRD ligands together with E3 ligase ligands or vehicle control treatment. After a 72 h incubation, 100 ul of the CellTiter-Glo® substrate was added per well and luminescence was read on a Spectramax M5 (Molecular Devices). Dose-response curves were generated using Graphpad Prism software.\nMolm-13 cells (1×10^4) were treated for 24 (FIG. 77A) or 72 (FIG. 77B) hours were treated in white 96 well plates with the compounds (10 nM-10 μM solubilized in DMSO). After indicated times cell viability was assessed using the CellTiter-Glo® Luminescent Cell Viability Assay (Promega) and the signal detected on a SpectraMax M5 (Molecular Devices)."}, "BRD4 [3]": {"target": "T1, BRD4 (Homo sapiens, UniProt O60885)", "assay": "CURE-PRO-mediated BRD4 degradation in MCF7 cells, Western blot", "design": "endogenous in cells", "experimental": "Namalwa, Ramosm HeLa, MCF7, or HT29 HCT116 cells (2.5-3×10^6) were treated for 24 hours with the indicated compounds solubilized in DMSO. The cells were washed in ice-cold PBS and were then lysed in RIPA lysis buffer (150 mM NaCl, 5 mM EDTA, 1% NP-40, 0.5% sodium deoxycholate, 0.1% SDS, 50 mM Tris, pH 8.0.) with Roche protease inhibitor complete cocktail and phosphatase inhibitors (10 mM sodium fluoride, 10 mM sodium pyrophosphate, 1 mM sodium orthovanadate and 20 mM β-glycerophosphate). The total protein concentrations were determined by Bradford Protein Assay (Pierce) and 10-20 μg of protein was loaded onto 4-15% Tris-Glycine gradient gels (Biorad). After standard gel electrophoresis, the separated proteins were transferred to PVDF membrane by wet transfer. The immunoblots were then blocked for 1 hour in 5% skim milk in TBST or 5% BSA in TBST, according to manufacturer's instructions, before an overnight incubation at 4° C. with indicated antibodies and membranes. Membranes were then incubated with the appropriate horseradish peroxidase-conjugated secondary antibodies (1:5,000 dilution) for 1 h at room temperature and the bands were visualized using the Clarity Max Western ECL Substrate (Biorad) and the ChemiDoc Imaging System (Biorad). Signal was detected with ECL Western Blotting Substrate (Pierce) and X-ray film processed with a Konica SRX-101 X-ray film processor or captured by Bio-Rad's Chemidoc Imaging system.\nMCF7 cells (3×10^6) were treated for 24 h with the compounds solubilized in DMSO. Compounds were added at 100 nM-10 μM. Standardized protein samples were electrophoresed and imaged as described in the Immunoblotting section above. FIG. 69 depicts the CURE-PRO-mediated BRD4 degradation for the BRD-E9 monomer and VHL ligands 8305 combined in a 1:1 ratio, and FIG. 70 depicts the CURE-PRO-mediated BRD4 degradation for the BRD-E20 monomer and 8305.\nMCF7 cells (3×10^6) were treated for 24 h with the compounds solubilized in DMSO. Compounds were added at 1 μM-10 μM. Standardized protein samples were electrophoresed and imaged as described in the Immunoblotting section above. FIG. 71 depicts the CURE-PRO-mediated BRD4 degradation for the BRD-E50 monomer and VHL ligands 8305 and 8304 combined in a 1:1 ratio."}, "BRD4 [4]": {"target": "T1, BRD4", "assay": "CURE-PRO-mediated BRD4 degradation in MCF7 cells, WES (ProteinSimple)", "design": "endogenous in cells", "experimental": "WES Simple analysis was performed on WES system (ProteinSimple-Biotechne) according to the manufacturer's instructions. Total protein concentrations of cell lysates were determined by the Pierce BCA kit (Thermo Fisher). 3 μL of 0.3 μg/μL of the protein lysate was loaded onto a 12- to 230-kDa WES assay plate (ProteinSimple) where 300 nL sample was withdrawn through a capillary, subjected to electrophoretic separation of proteins by size, and followed by the simultaneous, HRP-based detection of proteins using the Anti-Rabbit Detection Module (Proteinsimple: #DM-001). The electropherograms were checked then the automatic peak detection was manually corrected if it was required.\nMCF7 cells (3×10^6) were treated for 4-24 hours continually (FIG. 72), or treated for 4 h, washed and incubated for a further 4-24 h with the compounds solubilized in DMSO. Compounds were added at 10 μM each. Cells were washed, lysed, and clarified by centrifugation. The total protein concentration was quantified by the BCA method (ThermoFisher Sciences). Standardized protein samples were electrophoresed and imaged as described in the WES Proteinsimple section above. FIG. 69 depicts the CURE-PRO-mediated BRD4 degradation for the BRD-E50 monomer, and VHL ligand, 8305.\nMCF7 cells (3×10^6) were treated for 24 hours with the compounds solubilized in DMSO. CURE-PRO monomers were added at 10 μM each and the proteasomal inhibitors at 1 μM. Standardized protein samples were electrophoresed and imaged as described in the WES Proteinsimple section above. FIGS. 73 and 75 depicts the dependence of the proteasome for CURE-PRO-mediated BRD4 degradation.\nMCF7 cells (3×10^6) were treated for 24 hours with the compounds solubilized in DMSO. CURE-PRO monomers were added at 10 μM. FIG. 74 depicts the CURE-PRO-mediated BRD4 degradation for the BRD-E50 monomer, and VHL ligand, 8305 combined in a 1:1 ratio after 24 h."}, "BRD4 [5]": {"target": "T1, BRD4", "assay": "Summary of BRD4 degradation by CURE-PRO pairs, estimated from Western Blot or WES", "design": "endogenous in cells", "details": "Table 3, aryl-boronic acid BRD4 ligand + 8305", "in_short": "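Degradation read-out from immunoblot with ECL, or WES capillary electrophoresis with HRP detection, of RIPA lysates. Cells (Namalwa, Ramos, HeLa, MCF7, HT29 or HCT116) were exposed to DMSO-solubilized compounds for 24 h; a check mark marks 30% to 70% or higher degradation.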"}, "HCT116 cells": {"system": "HCT116 cells", "assay": "MTT toxicity of E3 ligase CURE-PRO monomers, HCT116 cells", "details": "monomer alone, HCT116, 10 nM-30 μM, 24 h", "experimental": "CURE-PRO ligands for the E3 ubiquitin ligases were assessed for toxicity by MTT assays as described above. CURE-PRO monomers (10 nM-30 μM) were solubilized in DMSO and added in triplicate to cells (1×10^5 cells/well) seeded in 96 well plates on the previous day. HCT116 (FIG. 105A), MCF7 (FIG. 105B), and HT29 cells (FIG. 105C) were treated with the CURE-PRO monomers for 24 h."}, "[6]": {"details": "single monomer alone, MCF7, 10 μM"}}, "note": "“Also recorded” adds a separate entry of the source."}
{"molecule": "CCNC(=O)C[C@@H]1N=C(c2ccc(Cl)cc2)c2cc(B(O)O)ccc2-n2c(C)nnc21", "note": "[BRD-E50, ((4S)-6-(4-chlorophenyl)-4-(2-(ethylamino)-2-oxoethyl)-1-methyl-4H-benzo[f][1,2,4]triazolo[4,3-a][1,4]diazepin-8-yl)boronic acid]", "values": [{"measurement": "caspase 3/7 activation", "setting": "caspase 3/7 [1]; 1:1 with VHL ligand 8305, Namalwa, 10 nM-10 μM", "result": "demonstrates activation of caspase 3/7; also recorded: marked caspase activation"}, {"measurement": "caspase 3/7 activation", "setting": "caspase 3/7 [1]; co-treated with VHL298, Namalwa", "result": "does not increase caspase activity"}, {"measurement": "caspase 3/7 activation", "setting": "caspase 3/7 [2]; 1:1 with VHL ligand 8305, Molm-13, 24 h, 10 nM-10 μM", "result": "demonstrates activation of caspase 3/7; also recorded: marked caspase activation"}, {"measurement": "caspase 3/7 activation", "setting": "caspase 3/7 [2]; co-treated with VHL298, Molm-13, 24 h", "result": "does not increase caspase activity"}, {"measurement": "loss of cell viability versus monomers alone", "setting": "Molm-13 cells; co-dosed 1:1 with VHL ligand 8305, Molm-13, 24 h and 72 h, 10 nM-10 μM", "result": "marked loss in cell viability when compared to monomer treatment alone; also recorded: a greater loss of cell viability"}, {"measurement": "cell viability", "setting": "Molm-13 cells; co-treated with VHL298, Molm-13, 24 h and 72 h", "result": "decreases levels of cell viability to similar levels of BRD-E50 treatment alone"}, {"measurement": "BRD4 degradation", "setting": "BRD4 [3]; 1:1 with VHL ligand 8304, MCF7, 24 h, 1 μM-10 μM", "result": "but not when VHL ligand 8304 is co-incubated; also recorded: no degradation is noted"}, {"measurement": "BRD4 degradation", "setting": "BRD4 [3]; 1:1 with VHL ligand 8305, MCF7, 24 h, 100 nM-10 μM", "result": "there is degradation of BRD4; also recorded: marked BRD4 degradation"}, {"measurement": "BRD4 degradation", "setting": "BRD4 [4]; 1:1 with VHL ligand 8305, MCF7, 10 μM each, 4-24 h", "result": "directs degradation of BRD4 as early as 4 h; also recorded: marked BRD4 degradation after 4 h"}, {"measurement": "BRD4 degradation", "setting": "BRD4 [4]; co-incubated with VHL ligand 8304, MCF7, 10 μM each", "result": "No degradation is noted"}, {"measurement": "BRD4 degradation", "setting": "BRD4 [4]; [6]", "result": "there is no degradation of BRD4"}, {"measurement": "BRD4 degradation after VHL298 pre-incubation", "setting": "BRD4 [4]; with 8305, 10 μM each, VHL298 preincubated at equimolar concentration, MCF7", "result": "attenuates CURE-PRO mediated BRD4 degradation; also recorded: No degradation is noted; also recorded: inhibited CURE-PRO mediated degradation; also recorded: inhibits the degradation of BRD4"}, {"measurement": "Degradation of BRD4, combination with VHL ligand 8305", "setting": "BRD4 [5]", "result": "√ (A black check mark indicates efficacy of 30% to 70% or higher protein degradation)"}]}
{"molecule": "Cc1ncsc1-c1ccc(CNC(=O)[C@@H]2C[C@@H](O)CN2C(=O)[C@@H](NC(=O)c2cccc(O)c2O)C(C)(C)C)cc1", "note": "[compound 8305, (2S,4R)-1-((S)-2-(2,3-dihydroxybenzamido)-3,3-dimethylbutanoyl)-4-hydroxy-N-(4-(4-methylthiazol-5-yl)benzyl)pyrrolidine-2-carboxamide]", "values": [{"measurement": "loss of viability (MTT)", "setting": "HCT116 cells", "result": "loss of viability only noted at higher concentrations (30 μM); also recorded: Toxicity at higher concentrations"}, {"measurement": "BRD4 degradation", "setting": "BRD4 [4]; [6]", "result": "there is no degradation of BRD4"}]}
